Laboratory results as given in US11426473B2, “Nitrogen-containing compound or salt thereof, or metal complex thereof” (FUJIFILM Corporation, priority 2013, dated 2022).
Like-named read-outs stand apart in the source and are kept apart here.

How the values were obtained:
[1] = biological target: T1, Integrin αvβ3 (Homo sapiens, UniProt P05106+P06756); experiment: Integrin αvβ3 binding affinity test
T1 construct: purchased Chemicon International, Inc
Method: (§1) […] αvβ3 (Chemicon International, Inc.) was immobilized on each well of a 96-well plate (Corning Inc.). Each well was blocked with a 1% Block Ace (DS Pharma Biomedical Co., Ltd) solution and then washed with T-PBS (PBS containing 0.05% Tween 20). Evaluation compound solutions having a 2-fold concentration (10 concentrations of 3.16-fold dilutions from 0.3 μmol/L, buffer (20 mM Tris-HCl pH 7.5, 150 mM NaCl, 1 mM CaCl2, 1 mM MgCl2, and 1 mM MnCl2)) and a 4 μg/mL biotinylated vitronectin solution (vitronectin (Upstate Biotechnology Inc.) was labeled with EZ-Link Sulfo-NHS-Biotinylation Kit (Pierce/Thermo Fisher Scientific Inc.) and then concentration-adjusted) were each added at 50 μL/well, and the plate was shaken at room temperature for 2 hours. After washing with T-PBS, a 0.2 μg/mL avidin peroxidase (Pierce/Thermo Fisher Scientific Inc.) solution was added thereto, and the plate was shaken at room temperature for 1 hour. After washing with T-PBS, color was developed by an o-phenylenediamine (Sigma-Aldrich Inc.) solution (the reaction was terminated by the addition of 4 mol/L sulfuric acid), and the absorbance was measured (490 nm, Reference: 595 nm). The IC50 value was calculated using XLfit 3.0 (ID Business Solutions Ltd.). RGDfV (Bachem AG) was measured in duplicate as a QC sample for each plate.

[2] = biological target: T2, Integrin αvβ5 (Homo sapiens, UniProt P06756+P18084); experiment: Integrin αvβ5 binding affinity test
T2 construct: purchased Chemicon International, Inc
Method: as §1, with “αvβ5” for “αvβ3”, “PBST (10 mM Na2HPO4 pH 7.5, 150 mM NaCl, and 0.01%” for “T-PBS (PBS containing 0.05%”, “PBST,” for “T-PBS,”

[3] = inhibition of biotinylated vitronectin binding to immobilized αvβ3, read-out: IC50 value αv β3
[4] = inhibition of biotinylated vitronectin binding to immobilized αvβ5, read-out: IC50 value αvβ5

T1 sequence (P06756 31-889 limits assumed): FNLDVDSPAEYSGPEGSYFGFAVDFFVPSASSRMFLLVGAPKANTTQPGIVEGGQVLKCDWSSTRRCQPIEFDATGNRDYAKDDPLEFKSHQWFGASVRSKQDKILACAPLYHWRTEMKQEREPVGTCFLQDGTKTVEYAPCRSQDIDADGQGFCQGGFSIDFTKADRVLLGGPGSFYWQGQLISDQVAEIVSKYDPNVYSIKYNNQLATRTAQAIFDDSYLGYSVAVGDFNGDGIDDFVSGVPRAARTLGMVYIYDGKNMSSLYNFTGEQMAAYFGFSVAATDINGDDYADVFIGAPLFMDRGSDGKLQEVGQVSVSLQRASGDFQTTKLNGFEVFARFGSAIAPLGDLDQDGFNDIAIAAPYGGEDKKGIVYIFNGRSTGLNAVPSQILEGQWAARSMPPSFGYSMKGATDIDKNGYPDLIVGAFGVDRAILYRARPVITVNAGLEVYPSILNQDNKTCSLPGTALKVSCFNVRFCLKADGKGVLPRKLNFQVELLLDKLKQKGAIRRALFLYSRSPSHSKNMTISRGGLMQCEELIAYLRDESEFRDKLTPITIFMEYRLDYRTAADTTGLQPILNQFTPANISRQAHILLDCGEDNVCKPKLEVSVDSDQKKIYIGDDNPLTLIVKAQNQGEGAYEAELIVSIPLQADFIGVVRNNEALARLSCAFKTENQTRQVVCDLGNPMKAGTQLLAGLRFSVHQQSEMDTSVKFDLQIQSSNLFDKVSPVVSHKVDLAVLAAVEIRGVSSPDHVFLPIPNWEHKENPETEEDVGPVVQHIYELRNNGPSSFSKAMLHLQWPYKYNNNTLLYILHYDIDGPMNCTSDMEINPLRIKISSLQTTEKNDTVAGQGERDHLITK
T1 sequence (P06756 891-1048 partner limits assumed): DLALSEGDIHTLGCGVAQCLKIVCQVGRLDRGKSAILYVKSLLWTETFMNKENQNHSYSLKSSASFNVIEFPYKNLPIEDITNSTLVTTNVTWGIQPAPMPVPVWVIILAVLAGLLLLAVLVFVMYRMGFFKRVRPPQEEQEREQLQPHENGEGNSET
T1 sequence (P05106 27-788): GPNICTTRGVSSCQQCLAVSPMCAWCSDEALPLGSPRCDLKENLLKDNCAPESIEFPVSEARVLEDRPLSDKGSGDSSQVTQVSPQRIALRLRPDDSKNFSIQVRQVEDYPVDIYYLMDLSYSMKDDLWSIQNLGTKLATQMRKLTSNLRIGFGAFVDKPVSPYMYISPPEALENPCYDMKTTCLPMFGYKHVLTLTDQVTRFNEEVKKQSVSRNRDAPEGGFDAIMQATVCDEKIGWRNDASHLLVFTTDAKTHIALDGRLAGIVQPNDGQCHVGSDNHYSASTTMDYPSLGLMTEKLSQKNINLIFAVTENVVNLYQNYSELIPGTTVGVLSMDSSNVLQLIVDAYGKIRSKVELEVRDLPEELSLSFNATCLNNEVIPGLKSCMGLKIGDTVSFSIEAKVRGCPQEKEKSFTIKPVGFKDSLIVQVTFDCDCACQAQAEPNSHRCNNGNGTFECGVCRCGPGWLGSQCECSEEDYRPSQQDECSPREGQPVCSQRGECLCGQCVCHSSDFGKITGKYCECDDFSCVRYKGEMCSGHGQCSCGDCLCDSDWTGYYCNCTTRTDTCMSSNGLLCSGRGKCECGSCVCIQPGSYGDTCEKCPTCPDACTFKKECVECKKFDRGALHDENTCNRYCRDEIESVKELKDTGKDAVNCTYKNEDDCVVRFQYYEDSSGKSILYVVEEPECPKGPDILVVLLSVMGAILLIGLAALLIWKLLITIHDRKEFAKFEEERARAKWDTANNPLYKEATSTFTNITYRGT
T2 sequence (P06756 31-889 limits assumed): as the sequence (P06756 31-889 limits assumed) above
T2 sequence (P06756 891-1048 partner limits assumed): as the sequence (P06756 891-1048 partner limits assumed) above
T2 sequence (P18084 24-799): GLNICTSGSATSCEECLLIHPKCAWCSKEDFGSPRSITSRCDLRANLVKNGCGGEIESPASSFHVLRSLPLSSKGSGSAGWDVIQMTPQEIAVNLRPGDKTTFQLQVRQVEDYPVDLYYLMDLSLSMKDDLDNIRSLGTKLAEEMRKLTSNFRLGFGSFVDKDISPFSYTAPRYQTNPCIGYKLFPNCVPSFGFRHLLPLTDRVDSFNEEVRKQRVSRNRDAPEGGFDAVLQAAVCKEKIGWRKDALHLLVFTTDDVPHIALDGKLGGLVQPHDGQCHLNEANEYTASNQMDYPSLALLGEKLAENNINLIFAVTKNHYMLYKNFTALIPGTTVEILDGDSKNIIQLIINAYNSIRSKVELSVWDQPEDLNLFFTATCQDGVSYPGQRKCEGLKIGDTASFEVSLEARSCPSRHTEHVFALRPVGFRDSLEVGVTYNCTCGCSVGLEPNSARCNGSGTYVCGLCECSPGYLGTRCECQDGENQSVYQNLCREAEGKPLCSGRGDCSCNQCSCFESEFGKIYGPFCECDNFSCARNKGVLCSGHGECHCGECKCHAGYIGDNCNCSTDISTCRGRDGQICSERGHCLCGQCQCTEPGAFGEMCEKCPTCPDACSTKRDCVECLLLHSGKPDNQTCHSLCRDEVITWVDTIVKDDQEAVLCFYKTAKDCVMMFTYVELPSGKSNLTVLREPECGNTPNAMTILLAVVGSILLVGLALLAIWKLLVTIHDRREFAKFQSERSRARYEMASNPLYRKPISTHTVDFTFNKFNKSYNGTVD

Compound | IC50 [1, 3] [nM] | IC50 [2, 4] [nM] | IC50 [1] [nM] | IC50 [2] [nM]
O=C(O)CC(c1cncc(OCCCC(=O)NCCNC(=O)[C@H](CS(=O)(=O)O)NC(=O)[C@H](CS(=O)(=O)O)NC(=O)CN2CCN(CC(=O)O)CCN(CC(=O)O)CCN(CC(=O)O)CC2)c1)n1ccc2c(CCc3ccc4c(n3)NCCC4)cccc21 (stereo partly drawn) [Compound J9, 2,2′,2″-(10-((4R,7R)-16-((5-(2-carboxy-1-(4-(2-(5,6,7,8-tetrahydro-1,8-naphthyridin-2-yl)ethyl)-1H-indol-1-yl)ethyl)pyridin-3-yl)oxy)-2,5,8,13-tetraoxo-4,7-bis(sulfomethyl)-3,6,9,12-tetraazahexadecyl)-1,4,7,10-tetraazacyclododecane-1,4,7-triyl)triacetic acid] | < 1 | 1 to 10 |  | 
Cc1cc(OCCCC(=O)NCCNC(=O)[C@H](CS(=O)(=O)O)NC(=O)CCC(C(=O)O)N2CCCN3CCN(CCCN(CC(=O)O)CC3)CC2)cc(C)c1S(=O)(=O)N[C@@H](CNC(=O)CCCCc1ccc2c(n1)NCCC2)C(=O)O (single isomer, unassigned) [Ab9-b] | < 1 | < 1 |  | 
Cc1cc(OCCCC(=O)NCCNC(=O)COCCOCCNC(=O)CN2CCN3CCN4CCN(CC2)CC(=O)[O][In]([O]C(=O)C3)[O]C(=O)C4)cc(C)c1S(=O)(=O)NC(CNC(=O)c1ccc(CCc2ccc3c(n2)NCCC3)cc1)C(=O)O (stereo not drawn) [BB] |  |  | < 1 | < 1
Cc1cc(OCCCC(=O)NCCNC(=O)COCCOCCNC(=O)CN2CCN(CC(=O)O)CCN(CC(=O)O)CCN(CC(=O)O)CC2)cc(C)c1S(=O)(=O)N[C@@H](CNC(=O)c1ccc(CCc2ccc3c(n2)NCCC3)cc1)C(=O)O [Compound D3, (S)-2,2′,2′-(10-(19-(4-(N-(1-carboxy-2-(4-(2-(5,6,7,8-tetrahydro-1,8-naphthyridin-2-yl)ethyl)benzamido)ethyl)sulfamoyl)-3,5-dimethylphenoxy)-2,11,16-trioxo-6,9-dioxa-3,12,15-triazanonadecyl)-1,4,7,10-tetraazacyclododecane-1,4,7-triyl)triacetic acid] | < 1 | < 1 |  | 
Cc1cc(OCCCC(=O)NCCNC(=O)COCCOCCNC(=O)[C@H](CS(=O)(=O)O)NC(=O)CN2CCN(CC(=O)O)CCN(CC(=O)O)CCN(CC(=O)O)CC2)cc(C)c1S(=O)(=O)N[C@@H](CNC(=O)c1ccc(CCc2ccc3c(n2)NCCC3)cc1)C(=O)O [Compound G3, 2,2′,2″-(10-((R)-22-(4-(N—((S)-1-carboxy-2-(4-(2-(5,6,7,8-tetrahydro-1,8-naphthyridin-2-yl)ethyl)benzamido)ethyl)sulfamoyl)-3,5-dimethylphenoxy)-2,5,14,19-tetraoxo-4-(sulfomethyl)-9,12-dioxa-3,6,15,18-tetraazadocosyl)-1,4,7,10-tetraazacyclododecane-1,4,7-triyl)triacetic acid] | < 1 | < 1 |  | 
O=C(O)CC(c1cncc(OCCCC(=O)NCCNC(=O)[C@H](CS(=O)(=O)O)NC(=O)[C@H](CS(=O)(=O)O)NC(=O)CN2CCN(CC(=O)O)CCN(CC(=O)O)CCN(CC(=O)O)CC2)c1)n1ccc2cc(OCCc3ccc4c(n3)NCCC4)ccc21 (stereo partly drawn) [Compound I21, 2,2′,2″-(10-((4R,7R)-16-((5-(2-carboxy-1-(5-(2-(5,6,7,8-tetrahydro-1,8-naphthyridin-2-yl)ethoxy)-1H-indol-1-yl)ethyl)pyridin-3-yl)oxy)-2,5,8,13-tetraoxo-4,7-bis(sulfomethyl)-3,6,9,12-tetraazahexadecyl)-1,4,7,10-tetraazacyclododecane-1,4,7-triyl)triacetic acid] | < 1 | < 1 |  | 
